Experimental data reported in ChEMBL document CHEMBL4673385, “Discovery of Potent Inhibitors of Streptococcus mutans Biofilm with Antivirulence Activity” (ACS Med Chem Lett, 2021).
In brackets after ≈: the same amount, converted by molar mass. Activity calls are given as the source filed them. Unless noted, the rule behind the calls is not given here.

Tests used:
[1] = Solubility of compound in water; type: physicochemical; details: water; read-out: solubility
Streptococcus mutans [2] = assay: Antibiofilm activity against Streptococcus mutans UA159 assessed as inhibition of biofilm formation by serial dilution method; type: functional, organism-based; details: Streptococcus mutans, UA159; read-out: IC50
[3] = biological target: T1, Glucosyltransferase-SI (Streptococcus mutans serotype c (strain ATCC 700610 / UA159)) (UniProt P13470); assay: Inhibition of GtfC in Streptococcus mutans UA159 assessed as reduction in glucans level by Coomassie blue dye based SDS-PAGE analysis
T1 sequence (whole entry): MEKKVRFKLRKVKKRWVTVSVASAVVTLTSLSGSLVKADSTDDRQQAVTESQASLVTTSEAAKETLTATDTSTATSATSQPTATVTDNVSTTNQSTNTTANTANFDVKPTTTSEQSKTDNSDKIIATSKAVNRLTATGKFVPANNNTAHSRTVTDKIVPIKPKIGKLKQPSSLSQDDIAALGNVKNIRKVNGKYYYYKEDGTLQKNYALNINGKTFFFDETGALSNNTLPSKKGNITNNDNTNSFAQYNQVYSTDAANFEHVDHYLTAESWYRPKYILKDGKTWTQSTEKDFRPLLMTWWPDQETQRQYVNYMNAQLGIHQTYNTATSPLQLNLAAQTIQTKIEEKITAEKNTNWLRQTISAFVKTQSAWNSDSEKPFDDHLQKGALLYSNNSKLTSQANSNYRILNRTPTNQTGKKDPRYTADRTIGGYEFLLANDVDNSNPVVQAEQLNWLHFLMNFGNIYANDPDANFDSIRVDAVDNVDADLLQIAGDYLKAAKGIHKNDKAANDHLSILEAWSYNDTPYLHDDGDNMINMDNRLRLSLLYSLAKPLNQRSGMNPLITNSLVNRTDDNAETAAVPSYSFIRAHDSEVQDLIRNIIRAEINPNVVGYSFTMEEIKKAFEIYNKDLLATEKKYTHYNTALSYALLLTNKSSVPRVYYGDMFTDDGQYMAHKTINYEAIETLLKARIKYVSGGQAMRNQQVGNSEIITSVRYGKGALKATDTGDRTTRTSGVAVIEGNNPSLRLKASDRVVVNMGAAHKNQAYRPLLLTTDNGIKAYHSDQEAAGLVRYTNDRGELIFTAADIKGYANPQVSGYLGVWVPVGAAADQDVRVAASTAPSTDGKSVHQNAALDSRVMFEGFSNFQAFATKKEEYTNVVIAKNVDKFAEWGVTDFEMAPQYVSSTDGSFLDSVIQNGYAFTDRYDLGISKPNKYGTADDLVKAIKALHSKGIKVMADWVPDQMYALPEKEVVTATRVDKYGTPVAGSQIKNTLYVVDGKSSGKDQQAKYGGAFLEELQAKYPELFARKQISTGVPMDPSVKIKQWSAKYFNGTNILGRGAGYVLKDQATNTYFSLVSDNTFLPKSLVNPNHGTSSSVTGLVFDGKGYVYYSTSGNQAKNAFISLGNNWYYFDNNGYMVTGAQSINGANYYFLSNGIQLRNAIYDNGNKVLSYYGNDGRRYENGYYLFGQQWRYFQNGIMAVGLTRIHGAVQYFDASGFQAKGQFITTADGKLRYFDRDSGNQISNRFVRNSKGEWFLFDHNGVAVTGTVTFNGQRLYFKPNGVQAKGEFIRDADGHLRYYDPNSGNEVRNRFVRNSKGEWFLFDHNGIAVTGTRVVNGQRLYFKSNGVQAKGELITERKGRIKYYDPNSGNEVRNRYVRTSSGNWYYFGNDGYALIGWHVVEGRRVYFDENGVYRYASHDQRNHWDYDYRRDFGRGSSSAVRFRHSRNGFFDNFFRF

Streptococcus mutans [4] = assay: Bactericidal activity against Streptococcus mutans UA159 assessed as reduction in bacterial growth at 100 uM after 24 hrs; type: functional, organism-based
[5] = biological target: T2, Glucosyltransferase-S (Streptococcus mutans serotype c (strain ATCC 700610 / UA159)) (UniProt P49331); assay: Inhibition of GtfD in Streptococcus mutans UA159 assessed as reduction in glucans level by Coomassie blue dye based SDS-PAGE analysis
T2 sequence (whole entry): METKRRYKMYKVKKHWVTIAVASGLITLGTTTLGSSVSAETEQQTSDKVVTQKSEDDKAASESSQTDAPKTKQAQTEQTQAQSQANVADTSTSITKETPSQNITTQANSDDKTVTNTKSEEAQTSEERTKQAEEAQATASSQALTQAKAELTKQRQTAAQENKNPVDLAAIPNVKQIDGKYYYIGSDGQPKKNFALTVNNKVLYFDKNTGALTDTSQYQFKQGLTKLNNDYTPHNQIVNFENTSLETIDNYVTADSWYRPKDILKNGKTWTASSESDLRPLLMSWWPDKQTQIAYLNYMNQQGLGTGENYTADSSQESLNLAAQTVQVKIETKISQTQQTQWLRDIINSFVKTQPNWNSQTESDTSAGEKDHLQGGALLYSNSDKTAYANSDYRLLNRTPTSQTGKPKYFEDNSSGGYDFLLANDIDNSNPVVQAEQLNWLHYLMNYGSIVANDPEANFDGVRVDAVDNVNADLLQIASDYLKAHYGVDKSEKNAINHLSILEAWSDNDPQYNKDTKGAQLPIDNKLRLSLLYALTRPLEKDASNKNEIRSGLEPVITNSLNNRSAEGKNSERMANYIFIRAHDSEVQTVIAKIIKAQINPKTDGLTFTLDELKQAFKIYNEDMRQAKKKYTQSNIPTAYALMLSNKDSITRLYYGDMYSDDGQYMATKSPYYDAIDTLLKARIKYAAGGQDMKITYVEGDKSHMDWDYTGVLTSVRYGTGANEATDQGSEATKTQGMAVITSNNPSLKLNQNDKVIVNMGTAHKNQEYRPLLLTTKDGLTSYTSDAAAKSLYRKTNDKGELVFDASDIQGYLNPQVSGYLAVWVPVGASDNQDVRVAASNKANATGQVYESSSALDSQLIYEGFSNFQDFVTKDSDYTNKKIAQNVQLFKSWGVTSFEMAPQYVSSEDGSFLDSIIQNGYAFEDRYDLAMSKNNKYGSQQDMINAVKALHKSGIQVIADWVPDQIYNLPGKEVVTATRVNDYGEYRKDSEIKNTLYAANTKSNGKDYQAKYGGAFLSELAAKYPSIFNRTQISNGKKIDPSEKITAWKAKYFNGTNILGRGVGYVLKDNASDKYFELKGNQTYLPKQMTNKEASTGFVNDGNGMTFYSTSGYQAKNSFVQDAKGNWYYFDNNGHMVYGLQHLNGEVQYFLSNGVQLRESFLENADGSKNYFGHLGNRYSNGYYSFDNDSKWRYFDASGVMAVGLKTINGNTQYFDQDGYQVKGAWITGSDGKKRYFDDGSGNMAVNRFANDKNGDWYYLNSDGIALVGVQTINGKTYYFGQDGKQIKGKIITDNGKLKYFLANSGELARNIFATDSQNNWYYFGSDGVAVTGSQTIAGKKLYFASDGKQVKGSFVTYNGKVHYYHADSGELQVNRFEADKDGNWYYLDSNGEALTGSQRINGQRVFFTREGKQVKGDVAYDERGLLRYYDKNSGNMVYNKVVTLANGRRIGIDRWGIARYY

| SMILES | solubility [1] [µg/mL] | IC50 (Streptococcus mutans [2]) [µM] | inhibition [3] | Activity (Streptococcus mutans [4]) | inhibition [5] |
| --- | --- | --- | --- | --- | --- |
| NC(=O)c1cccc(NC(=O)c2cnc3ccccc3c2)c1 | < 5 | 8.6 | Active | inactive | Active |
| NC(=O)c1ccccc1NC(=O)c1cnc2ccccc2c1 | 5 (≈ 17.2 µM) | 15.3 | Active | inactive | Active |
| O=C(c1ccc(F)cc1)c1ccc(-c2[nH]c(-c3ccc([N+](=O)[O-])cc3O)nc2-c2ccccc2)cc1 |  |  | Active |  | Active |
| COC(=O)c1ccc(NC(=O)c2cc3cc([N+](=O)[O-])ccc3s2)cc1 | 10 (≈ 28.1 µM) | 9.6 | Active | inactive | Active |
| NC(=O)c1ccccc1NC(=O)c1cc2cc([N+](=O)[O-])ccc2s1 | 10 (≈ 29.3 µM) | 16.7 | Active | inactive | Active |
| CC(C)(C)OC(=O)NCc1ccccc1NC(=O)c1cc2cc([N+](=O)[O-])ccc2s1 | < 5 | 51.5 | Active | inactive | Active |
| CC(C)(C)OC(=O)NCc1ccccc1NC(=O)c1cnc2ccccc2c1 | 15 (≈ 39.7 µM) | 52.8 | Active | inactive | Active |
